Results taken from PMC11024163, “MmcA is an electron conduit that facilitates both intracellular and extracellular electron transport in Methanosarcina acetivorans” (Nature Communications, 2024).

Biological target: T1, MmcA (Methanosarcina acetivorans, UniProt Q8TSY5)
T1 construct: gene MA_0658; mature holo-protein of 476 aa (signal peptide removed), C-terminal 3xFLAG and twin-Strep tags kept; homologous expression in M. acetivorans, anti-Flag purified from Triton X-100 solubilised membranes; seven covalent hemes c
T1 sequence (Q8TSY5 25-500): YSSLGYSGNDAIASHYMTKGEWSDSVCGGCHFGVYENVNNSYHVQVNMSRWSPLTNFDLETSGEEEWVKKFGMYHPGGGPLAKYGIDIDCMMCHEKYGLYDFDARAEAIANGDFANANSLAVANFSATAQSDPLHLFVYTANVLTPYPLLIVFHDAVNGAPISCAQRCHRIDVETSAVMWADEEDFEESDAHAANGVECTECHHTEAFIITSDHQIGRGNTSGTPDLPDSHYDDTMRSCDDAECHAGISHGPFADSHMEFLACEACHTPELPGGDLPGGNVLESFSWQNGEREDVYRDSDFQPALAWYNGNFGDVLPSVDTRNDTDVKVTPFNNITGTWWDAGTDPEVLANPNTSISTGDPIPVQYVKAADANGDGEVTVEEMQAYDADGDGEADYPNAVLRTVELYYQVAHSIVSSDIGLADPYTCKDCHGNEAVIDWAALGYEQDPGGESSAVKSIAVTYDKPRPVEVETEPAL
Test: UV-vis spectral oxidation of dithionite-reduced MmcA
Format: biochemical
Conditions: 2.5–3.5 µM MmcA, 50 mM Tris-HCl, 150 mM NaCl, 2% glycerol, pH 7.4, room temperature, anaerobic

SMILES | UV-vis spectral oxidation of dithionite-reduced MmcA (electron acceptor, soluble methanophenazine analogue, 200 µM) | UV-vis spectral oxidation of dithionite-reduced MmcA (electron acceptor in excess)
Oc1ccc2nc3ccccc3nc2c1 [2HP, 2-hydroxyphenazine] | The addition of 2HP instantaneously oxidized MmcA as observed by a shift in its Soret | 
O=C1c2ccc(S(=O)(=O)O)cc2C(=O)c2ccc(S(=O)(=O)O)cc21 [AQDS, anthraquinone-2,6-disulfonate] |  | All three electron acceptors oxidized MmcA rapidly
